Results published in US10654918B2, “Inflammatory disease diagnosis and methods of treatment using down-regulators of lipopolysaccharide-responsive beige-like anchor” (University of South Florida, priority 2013, dated 2020).

What was measured:
[1] = test system: CVID receptors, B220 and TLR4; assay: LPS regulates CVID receptors, B220 and TLR4 in vivo (cytometry of spleen and bone marrow cells); parameters: species or system C57BL/6J mice; details: for B220 Median Intensity fold / B220 Percentage fold / BAFFR Median Intensity fold / BAFFR Percentage fold / CD19 Median Intensity fold / CD19 Percentage fold / CD21 Median Intensity fold / CD21 Percentage fold / TACI Median Intensity fold / TACI Percentage fold / TLR4 Median Intensity fold / TLR4 Percentage fold: PBS vs LPS
Description: (§1) FIG. 34(A)-(B) are graphs showing LPS regulates BAFFR in vivo and in vitro. C57BL/6J mice of 2-month age were injected intraperitoneally with LPS (5 μg/g body weight) or PBS (control). For in vitro LPS stimulation, cells from mouse spleen or bone marrow were cultured with or without LPS (1 μg/ml) for 24 hr. Cells were stained with fluorophores-conjugated BAFFR and TACI antibodies and DAPI for dead/live discrimination and analyzed with cytometry. (A) Spleocytes without LPS-P3, (B) bone marrow cells without LPS-P3. Negative gating was based on B220 negative cells, which are negative for BAFFR and TACI. Numbers other than percentage are arbitrary MFI units. All experiments were done in triplicate for in the vitro experiment and data shown is representative of two separate experiments.
(§2) To investigate whether CVID genes also respond to LPS, mice were injected intraperitoneally with LPS. Twenty-four hours later the spleen and bone marrow cells were harvested and subjected to cytometry assay.

[2] = test system: splenocytes and bone marrow cells; assay: Ex vivo culture of splenocytes and bone marrow cells with LPS; assay type: cell-based, mouse; details: ex vivo cell culture, 24 h LPS stimulation (1 μg/ml)
Description: as §1, §2

[3] = test system: RAW264.7 macrophage cells; assay: Time-lapse video of LRBA-associated vesicle movement after LPS; assay type: cell-based, mouse
Description: FIGS. 14(A) and (B) are graphs showing LPS stimulates LRBA-positive vesicles movements. RAW264.7 macrophage cells stably transfected with pBWEGFP were cultured in a glass bottom dish and put into the culture chamber. LPS was added at final concentration of 100 ng/ml. The time-lapse video of four living cells was taken at one picture per second using the Leica TCS SP2 laser scanning inverted confocal microscope with a mini cell culture chamber at 37° C. and 5% CO2. (A) Average speed of LRBA-associated vesicles; (B) Average maximum speed of LRBA-associated vesicles; The two tails and unpaired T test p values: ***p<0.001; *p<0.0138 (A); ***p<0.0005; *p<0.0117 (B).
Time lapse video was taken for living macrophage cells. RAW264.7 macrophage cells stably transfected with pBWEGFP were cultured in a glass bottom dish and put into the mini cell culture chamber at 37° C. and 5% CO2 in a Leica TCS SP2 laser scanning inverted confocal microscope. LPS was added at final concentration of 100 ng/ml. The time-lapse video of four living cells was taken at one picture per second using the Avg. timelapse interval: 1000.05 ms (1.0 Hz) (+/−8.9 ms); Initial SAC Position: 1700; Objective: 100× (magnification: 100.00×); Mag. changer: EMCCD (magnification: 1.00×); 8 inning: 1×1; Channel 1: c488em at 50 ms. Gain: 3 Intensification: 700 ND: 60 [Independent]. […]

[4] = test system: LRBA; assay: Plasma LRBA levels (ELISA) in mice stimulated with LPS; assay type: in vivo
Description: (A) Mice stimulated with LPS (1 μg/g body weight) for 6 hours. (B) OVA induced asthma mouse model.
(§3) (C) Asthma patients with an exacerbation or controlled symptoms; (D) Human mononuclear leukocytes stimulated with LPS (1 μg/ml). LPS was derived from Escherichia coli 0111:B4 (Sigma, St. Louis, Mo.). LRBA levels were determined by LRBA ELISA Kit using 100 μl of plasma or conditioned media in each well, following the manufacturer's protocol.
(§4) A) Mice stimulated with LPS (5 μg/g body weight) for 6 hours. (B) OVA induced asthma mouse model; (C) Asthma patients with an exacerbation or controlled symptoms; (D) Human mononuclear leukocytes stimulated with LPS (1 μg/ml). LRBA levels were determined by LRBA ELISA Kit using 100 μl of plasma or conditioned media in each well. C57BL/6J mice were injected intraperitoneally with 500 μl of 12 mg/kg (body weight) of LRBA antibody or control normal rabbit 1 gG suspended in saline three times. LPS at 7.5 mg/kg in 0.2 ml PBS i.p was followed. About 100 μl of blood was collected by submandibular venipuncture after 2 hours of LPS injection. Plasma samples were obtained by centrifugation at 3000 rpm for 15 min and used for cytokine assay. The TNFα and IL-6 concentrations were detected using the mouse CBA Th1/Th2/Th17 cytokine kit. The Phosflow Starter Kit contains Cytofix Fixation Buffer, Phosflow Perm Buffer III and Stain Buffer BSA.

[5] = test system: Human mononuclear leukocytes; assay: LRBA levels in culture supernatants of mononuclear leukocytes stimulated with LPS; assay type: cell-based; details: LPS 1 μg/ml
Description: as §3, §4

[6] = Bone Marrow, LPS 5 μg/g i.p., 24 h

Substance: Lipopolysaccharide [LPS]
- B220 Median Intensity [1, 6]: 2423 ± 396.6 arbitrary fluorescence intensity units
- B220 Percentage [1, 6]: 15.5 ± 5.1%
- BAFFR Median Intensity [1, 6]: 693.3 ± 84.1 arbitrary fluorescence intensity units
- BAFFR Percentage [1, 6]: 43.7 ± 4.9%
- CD19 Median Intensity [1, 6]: 1951105 arbitrary fluorescence intensity units
- CD19 Percentage [1, 6]: 17.9 ± 5.5%
- CD21 Median Intensity [1, 6]: 378 ± 53.8 arbitrary fluorescence intensity units
- CD21 Percentage [1, 6]: 24.5 ± 1.23%
- TACI Percentage [1, 6]: 1.4 ± 0.35%
- TLR4 Median Intensity [1, 6]: 592 ± 28.8 arbitrary fluorescence intensity units
- TLR4 Percentage [1, 6]: 50.9 ± 3.3%
- B220 Median Intensity fold ([1]; Bone Marrow): 0.69↑
- B220 Percentage fold ([1]; Bone Marrow): 1.02
- BAFFR Median Intensity fold ([1]; Bone Marrow): 1.58↓
- BAFFR Percentage fold ([1]; Bone Marrow): 0.81
- CD19 Median Intensity fold ([1]; Bone Marrow): 0.94
- CD19 Percentage fold ([1]; Bone Marrow): 0.83
- CD21 Median Intensity fold ([1]; Bone Marrow): 2.02↓
- CD21 Percentage fold ([1]; Bone Marrow): 1.1
- TACI Median Intensity fold ([1]; Bone Marrow): 1.03
- TACI Percentage fold ([1]; Bone Marrow): 2.16
- TLR4 Median Intensity fold ([1]; Bone Marrow): 0.97
- TLR4 Percentage fold ([1]; Bone Marrow): 1.13↓
- B220 Median Intensity ([1]; Spleen, LPS 5 μg/g i.p., 24 h): 4031.3 ± 153.2 arbitrary fluorescence intensity units
- B220 Percentage ([1]; Spleen, LPS 5 μg/g i.p., 24 h): 58.7 ± 4.5%
- BAFFR Median Intensity ([1]; Spleen, LPS 5 μg/g i.p., 24 h): 842.7 ± 73.1 arbitrary fluorescence intensity units
- BAFFR Percentage ([1]; Spleen, LPS 5 μg/g i.p., 24 h): 94.7 ± 0.92%
- CD19 Median Intensity ([1]; Spleen, LPS 5 μg/g i.p., 24 h): 1792237 arbitrary fluorescence intensity units
- CD19 Percentage ([1]; Spleen, LPS 5 μg/g i.p., 24 h): 59 ± 4.1%
- CD21 Median Intensity ([1]; Spleen, LPS 5 μg/g i.p., 24 h): 580.71 ± 56.5 arbitrary fluorescence intensity units
- CD21 Percentage ([1]; Spleen, LPS 5 μg/g i.p., 24 h): 80.9 ± 9.7%
- TACI Median Intensity ([1]; Spleen, LPS 5 μg/g i.p., 24 h): 560.7 ± 60.1 arbitrary fluorescence intensity units
- TACI Percentage ([1]; Spleen, LPS 5 μg/g i.p., 24 h): 7.9 ± 2.70%
- TLR4 Median Intensity ([1]; Spleen, LPS 5 μg/g i.p., 24 h): 502.7 ± 3.1 arbitrary fluorescence intensity units
- TLR4 Percentage ([1]; Spleen, LPS 5 μg/g i.p., 24 h): 55.7 ± 4.0%
- B220 Median Intensity fold ([1]; Spleen): 1
- B220 Percentage fold ([1]; Spleen): 0.8↑
- BAFFR Median Intensity fold ([1]; Spleen): 1.19↓
- BAFFR Percentage fold ([1]; Spleen): 0.98
- CD19 Median Intensity fold ([1]; Spleen): 1.07
- CD19 Percentage fold ([1]; Spleen): 0.8↑
- CD21 Median Intensity fold ([1]; Spleen): 1.45↓
- CD21 Percentage fold ([1]; Spleen): 1.1
- TACI Median Intensity fold ([1]; Spleen): 1.1
- TACI Percentage fold ([1]; Spleen): 0.35↑
- TLR4 Median Intensity fold ([1]; Spleen): 1.02
- TLR4 Percentage fold ([1]; Spleen): 1.16↓
- TACI on splenocytes and bone marrow cells [2]: significantly upregulated
- average speed of vesicles ([3]; 3 min after adding LPS (100 ng/ml) into the media): doubles
- average speed of vesicles ([3]; after 5 and 23 min of LPS (100 ng/ml)): slows down to original levels
- LRBA secreted into plasma upon LPS stimulation ([4]; high levels, upper value): up to 6.7 μg/L
- LRBA levels in plasma ([4]; mice stimulated with LPS for 6 hours): significantly increased
- LRBA levels in the culture supernatants [5]: significantly increased
